{"source": "patent US5691135A", "about": "“Immunoglobulin superantigen binding to gp 120 from HIV” (The Regents of the University of California, priority 1994, dated 1997)"}
{"system": "polyclonal serum IgM binding to gp120 from HIV-1SF2", "parameters": "species or system human", "conditions": "gp120 elisa", "units": {"RESIDUAL BINDING TO gp120 (% OF CONTROL), 1.0 μM PEPTIDE": "% OF CONTROL", "RESIDUAL BINDING TO gp120 (% OF CONTROL), 10.0 μM PEPTIDE": "% OF CONTROL"}}
{"substance": "LKCNDKKFSGKGSCKNVSTV [Peptide 1959, gp160 peptide 231-250, HIV-1 MN]", "RESIDUAL BINDING TO gp120 (% OF CONTROL), 1.0 μM PEPTIDE": "37.0 ± 4.4", "RESIDUAL BINDING TO gp120 (% OF CONTROL), 10.0 μM PEPTIDE": "16.8 ± 8.4"}
{"system": "monoclonal IgM HEA binding to gp120", "parameters": "species or system human", "conditions": "not given"}
{"substance": "CRIKQIIMWQKVGKAMYAPPISG [Peptide 1589, gp160 peptide 418-441, HIV-1 IIIB]", "inhibition of HEA binding to gp120": "inhibited the binding of HEA to gp120"}
{"system": "monoclonal IgM HEA binding to gp120", "parameters": "species or system human", "conditions": "gp120 elisa", "units": {"RESIDUAL BINDING TO gp120 (% OF CONTROL), 1.0 μM PEPTIDE": "% OF CONTROL", "RESIDUAL BINDING TO gp120 (% OF CONTROL), 10.0 μM PEPTIDE": "% OF CONTROL"}}
{"substance": "LKCNDKKFSGKGSCKNVSTV [Peptide 1959, gp160 peptide 231-250, HIV-1 MN]", "RESIDUAL BINDING TO gp120 (% OF CONTROL), 1.0 μM PEPTIDE": "28.3 ± 3.7", "RESIDUAL BINDING TO gp120 (% OF CONTROL), 10.0 μM PEPTIDE": "8.4 ± 5.3"}
{"system": "monoclonal IgM VIN binding to gp120", "parameters": "species or system human", "conditions": "gp120 elisa", "units": {"RESIDUAL BINDING TO gp120 (% OF CONTROL), 1.0 μM PEPTIDE": "% OF CONTROL", "RESIDUAL BINDING TO gp120 (% OF CONTROL), 10.0 μM PEPTIDE": "% OF CONTROL"}}
{"substance": "GKAMYAPPIEGQIRCSSNIT [Peptide 2008, gp160 peptide 431-450, HIV-1 MN]", "RESIDUAL BINDING TO gp120 (% OF CONTROL), 1.0 μM PEPTIDE": "108 ± 4.3", "RESIDUAL BINDING TO gp120 (% OF CONTROL), 10.0 μM PEPTIDE": "15.7 ± 1.7"}
{"substance": "LKCNDKKFSGKGSCKNVSTV [Peptide 1959, gp160 peptide 231-250, HIV-1 MN]", "RESIDUAL BINDING TO gp120 (% OF CONTROL), 1.0 μM PEPTIDE": "12.6 ± 1.0", "RESIDUAL BINDING TO gp120 (% OF CONTROL), 10.0 μM PEPTIDE": "8.0 ± 0.2"}
{"system": "monoclonal IgM RSJ binding to gp120", "parameters": "species or system human", "conditions": "gp120 elisa", "units": {"RESIDUAL BINDING TO gp120 (% OF CONTROL), 1.0 μM PEPTIDE": "% OF CONTROL", "RESIDUAL BINDING TO gp120 (% OF CONTROL), 10.0 μM PEPTIDE": "% OF CONTROL"}}
{"substance": "LKCNDKKFSGKGSCKNVSTV [Peptide 1959, gp160 peptide 231-250, HIV-1 MN]", "RESIDUAL BINDING TO gp120 (% OF CONTROL), 1.0 μM PEPTIDE": "40.5 ± 8.2", "RESIDUAL BINDING TO gp120 (% OF CONTROL), 10.0 μM PEPTIDE": "17.2 ± 1.7"}
{"substance": "YTTKNIIGTIRQAHCNISRA [Peptide 1987, gp160 peptide 321-340, HIV-1 MN]", "RESIDUAL BINDING TO gp120 (% OF CONTROL), 1.0 μM PEPTIDE": "56.8 ± 0.3", "RESIDUAL BINDING TO gp120 (% OF CONTROL), 10.0 μM PEPTIDE": "42.2 ± 3.4"}
{"substance": "EGTIKGGEMKNCSFNITTSI [Peptide 1934, gp160 peptide 151-170, HIV-1 MN]", "RESIDUAL BINDING TO gp120 (% OF CONTROL), 1.0 μM PEPTIDE": "13.9 ± 0.3"}
{"system": "monoclonal IgM VNG binding to gp120", "parameters": "species or system human", "conditions": "gp120 elisa", "units": {"RESIDUAL BINDING TO gp120 (% OF CONTROL), 1.0 μM PEPTIDE": "% OF CONTROL", "RESIDUAL BINDING TO gp120 (% OF CONTROL), 10.0 μM PEPTIDE": "% OF CONTROL"}}
{"substance": "LKCNDKKFSGKGSCKNVSTV [Peptide 1959, gp160 peptide 231-250, HIV-1 MN]", "RESIDUAL BINDING TO gp120 (% OF CONTROL), 1.0 μM PEPTIDE": "48.7 ± 0.9", "RESIDUAL BINDING TO gp120 (% OF CONTROL), 10.0 μM PEPTIDE": "13.7 ± 3.6"}
{"system": "panel of Ig-SAg binding antibodies (polyclonal IgM plus four monoclonal IgM) binding to gp120", "parameters": "species or system human", "conditions": "not given"}
{"substance": "LKCNDKKFSGKGSCKNVSTV [Peptide 1959, gp160 peptide 231-250, HIV-1 MN]", "peptide binding across all Ig tested": "bound to all Ig tested"}
{"system": "VH3 IgM binding to gp120", "conditions": "not given"}
{"substance": "thyroglobulin", "inhibition of gp120 binding to VH3 IgM": "inhibited gp120 binding to VH3 IgM"}
{"substance": "actin", "inhibition of gp120 binding to VH3 IgM": "neither actin nor the 1925 peptide inhibited"}
{"substance": "DTEVHNVWATQACVPTDPNP [Peptide 1925, gp160 peptide 61-81, HIV-1 MN]", "inhibition of gp120 binding to VH3 IgM": "neither actin nor the 1925 peptide inhibited"}
